Common to all, as to type: biochemical
Assay [1] deals with T1, Human monoamine oxidase A (Homo sapiens, UniProt P21397).
T1 construct: purchased Sigma-Aldrich (Milan, Italy)
T1 sequence (P21397 1-527): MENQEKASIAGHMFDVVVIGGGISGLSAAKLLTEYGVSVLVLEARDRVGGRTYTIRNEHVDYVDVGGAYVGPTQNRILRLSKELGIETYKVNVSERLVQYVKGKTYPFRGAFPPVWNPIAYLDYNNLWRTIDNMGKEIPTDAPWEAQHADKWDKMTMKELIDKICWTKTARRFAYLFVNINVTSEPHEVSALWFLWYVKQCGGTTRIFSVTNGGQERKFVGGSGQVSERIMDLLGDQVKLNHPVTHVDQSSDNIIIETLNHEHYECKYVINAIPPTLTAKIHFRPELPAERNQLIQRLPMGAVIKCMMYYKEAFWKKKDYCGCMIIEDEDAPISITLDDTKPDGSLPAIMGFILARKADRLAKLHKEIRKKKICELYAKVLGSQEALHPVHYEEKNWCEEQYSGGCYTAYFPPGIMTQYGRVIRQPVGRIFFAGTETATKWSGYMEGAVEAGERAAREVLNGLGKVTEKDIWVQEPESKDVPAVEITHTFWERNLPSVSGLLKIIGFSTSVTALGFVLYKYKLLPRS
Kind of assay: Kinetic analysis of MAO-A inhibition (KM, Vmax, apparent Ki). Conditions: for Note: type of inhibition approached (MAO-A): for mixed inhibitors; for Inhibition Type (MAO-A): kynuramine 25–150 µM, two fixed inhibitor concentrations; for Ki: apparent Ki, mean ± SE (n). The procedure:
(§1) Monoamine oxidase activity was assayed by the fluorimetric method, as previously reported. This method, based on the monoamine oxidase oxidation of its non-selective substrate kynuramine, led to the production of […], which becomes fluorescent in alkaline conditions. In steady-state measurements of MAO activity, the reaction mixture (250 µL), prepared in a 50 mM potassium phosphate buffer, pH 7.1 (buffer A), contained 40 μM kynuramine in the absence or presence of the indicated concentration of the inhibitor. The DMSO concentration carried over by the inhibitor was 0.5% (v/v), and an identical concentration of DMSO was used in the absence of the inhibitor. The reaction started with the addition of 3.75 μg monoamine oxidase A or B and lasted 20 min. The reaction was stopped by adding 150 μL of 2 M NaOH and, after 10 min of incubation at room temperature, 240 μL of water. After centrifugation (10 min at 15,000 rpm), the fluorescence signal was measured on 500 μL of supernatant using a Cary Eclipse Spectrofluorimeter (Agilent Technologies, Milan, Italy) at room temperature (20–25 °C). Excitation and emission wavelengths of 315 and 380 nm, respectively, were employed; slits were set to 10 nm for both the excitation and emission beams.
(§2) The kinetic parameters KM and Vmax for MAO and XO substrates were obtained through kinetic measurements of these activities performed at different substrate concentrations, either in the absence or in the presence of two fixed concentrations of the various inhibitors. […] Each assay was realized as reported above, and the values of the initial velocity (vi) of the reaction were evaluated under the various experimental conditions. The data of vi were nonlinearly fitted according to the Michaelis–Menten equation or analyzed by the Lineweaver–Burk equation in order to derive the kinetic parameters in the absence (KM and Vmax) or in the presence (K’M and V’max) of the inhibitor.
(§3) The inhibition power of the various compounds and their inhibition mechanisms were evaluated. […] However, an apparent inhibition constant (K’i) was calculated at each inhibitor concentration using the equations hereafter reported, depending on the type of inhibition tentatively approached from the experimental data:K’i = V’max × [I]/(Vmax − V’max)(1) K’i = KM × [I]/(K’M − KM)(2) K’i = K’M × [I]/(KM − K’M)(3)
(§4) The K’i values obtained at different inhibitor concentrations were then averaged to obtain a unique value of apparent Ki for each compound.

Assay [2] deals with T2, Human monoamine oxidase B (Homo sapiens, UniProt P27338).
T2 construct: purchased Sigma-Aldrich (Milan, Italy)
T2 sequence (P27338 1-520): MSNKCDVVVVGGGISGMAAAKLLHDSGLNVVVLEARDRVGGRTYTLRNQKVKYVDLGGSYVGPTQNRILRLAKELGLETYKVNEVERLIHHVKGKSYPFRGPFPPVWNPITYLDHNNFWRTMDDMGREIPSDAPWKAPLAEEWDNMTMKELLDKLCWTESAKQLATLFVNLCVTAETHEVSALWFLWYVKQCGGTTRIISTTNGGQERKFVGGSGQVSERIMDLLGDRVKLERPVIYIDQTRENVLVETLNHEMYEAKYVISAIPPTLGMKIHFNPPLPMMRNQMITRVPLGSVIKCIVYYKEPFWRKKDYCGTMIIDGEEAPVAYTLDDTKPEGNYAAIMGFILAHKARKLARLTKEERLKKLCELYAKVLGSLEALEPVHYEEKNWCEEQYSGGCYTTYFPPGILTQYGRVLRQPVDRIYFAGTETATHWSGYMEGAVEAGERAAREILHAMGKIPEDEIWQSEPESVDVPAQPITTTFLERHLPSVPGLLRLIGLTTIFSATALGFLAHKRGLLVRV
In words: Kinetic analysis of MAO-B inhibition (KM, Vmax, apparent Ki). Conditions: for Note: type of inhibition approached (MAO-B): for mixed inhibitors; for Inhibition Type (MAO-B): kynuramine 25–150 µM, two fixed inhibitor concentrations; for Ki: apparent Ki, mean ± SE (n). Here is the method: as §1, §2, §3, §4

Assay [3] deals with T1, Human monoamine oxidase A. In words: Steady-state MAO-A activity, fluorimetric kynuramine assay. The following applies: 40 μM kynuramine, 20 min, pH 7.1; mean ± SD (n); from semilogarithmic plot. Here is the method: as §1, with “The reaction started with the addition of 3.75 μg monoamine oxidase A or B and lasted 20 min.” left out, “°C).” for “°C). Excitation and emission wavelengths of 315 and 380 nm, respectively, were employed; slits were set to 10 nm for both the excitation and emission beams.”

Assay [4] deals with T2, Human monoamine oxidase B. Kind of assay: Steady-state MAO-B activity, fluorimetric kynuramine assay. The following applies: 40 μM kynuramine, 20 min, pH 7.1; mean ± SD (n); from semilogarithmic plot. Here is the method: as §1
Assay [5] concerns the target T3, bovine milk xanthine oxidase (Bos taurus, UniProt P80457).
T3 construct: bovine milk xanthine oxidase; purchased Sigma-Aldrich (Milan, Italy); host or cells: bovine milk
Kind of assay: Steady-state xanthine oxidase activity, spectrophotometric assay. The following applies: for IC50: read-out: IC50 XO inhibition. The procedure:
Xanthine oxidase activity was assayed through a spectrophotometric method, essentially as previously reported. […] The DMSO concentration carried over by the inhibitor was 1% (v/v), and an identical concentration of DMSO was used in the absence of the inhibitor. The reaction started with the addition of XO and was followed kinetically for up to 30 s. The initial rate of uric acid formation was expressed as ΔE/min. The effect of each inhibitor in the XO assay was evaluated, and the data were treated as previously indicated for the MAO assay, including the extrapolation of the IC50 values.

[6] abbreviates: 75 μM xanthine, pH 7.8, 25 °C, mean ± SE (n), extrapolated from semilogarithmic plot.
Where [7] appears, read: read-out: Ki, Calculated from KM Increase (MAO-A).
[8] abbreviates: read-out: Ki, Calculated from KM Increase (MAO-B).

The structures appear in SMILES notation. Entries after “also recorded” stand apart in the source; their conditions may differ. Like-named read-outs stand apart in the source and are kept apart here.

We go through 7 molecules from publication PMC10819651 (Molecules, 2024).

T3 sequence (P80457 whole entry): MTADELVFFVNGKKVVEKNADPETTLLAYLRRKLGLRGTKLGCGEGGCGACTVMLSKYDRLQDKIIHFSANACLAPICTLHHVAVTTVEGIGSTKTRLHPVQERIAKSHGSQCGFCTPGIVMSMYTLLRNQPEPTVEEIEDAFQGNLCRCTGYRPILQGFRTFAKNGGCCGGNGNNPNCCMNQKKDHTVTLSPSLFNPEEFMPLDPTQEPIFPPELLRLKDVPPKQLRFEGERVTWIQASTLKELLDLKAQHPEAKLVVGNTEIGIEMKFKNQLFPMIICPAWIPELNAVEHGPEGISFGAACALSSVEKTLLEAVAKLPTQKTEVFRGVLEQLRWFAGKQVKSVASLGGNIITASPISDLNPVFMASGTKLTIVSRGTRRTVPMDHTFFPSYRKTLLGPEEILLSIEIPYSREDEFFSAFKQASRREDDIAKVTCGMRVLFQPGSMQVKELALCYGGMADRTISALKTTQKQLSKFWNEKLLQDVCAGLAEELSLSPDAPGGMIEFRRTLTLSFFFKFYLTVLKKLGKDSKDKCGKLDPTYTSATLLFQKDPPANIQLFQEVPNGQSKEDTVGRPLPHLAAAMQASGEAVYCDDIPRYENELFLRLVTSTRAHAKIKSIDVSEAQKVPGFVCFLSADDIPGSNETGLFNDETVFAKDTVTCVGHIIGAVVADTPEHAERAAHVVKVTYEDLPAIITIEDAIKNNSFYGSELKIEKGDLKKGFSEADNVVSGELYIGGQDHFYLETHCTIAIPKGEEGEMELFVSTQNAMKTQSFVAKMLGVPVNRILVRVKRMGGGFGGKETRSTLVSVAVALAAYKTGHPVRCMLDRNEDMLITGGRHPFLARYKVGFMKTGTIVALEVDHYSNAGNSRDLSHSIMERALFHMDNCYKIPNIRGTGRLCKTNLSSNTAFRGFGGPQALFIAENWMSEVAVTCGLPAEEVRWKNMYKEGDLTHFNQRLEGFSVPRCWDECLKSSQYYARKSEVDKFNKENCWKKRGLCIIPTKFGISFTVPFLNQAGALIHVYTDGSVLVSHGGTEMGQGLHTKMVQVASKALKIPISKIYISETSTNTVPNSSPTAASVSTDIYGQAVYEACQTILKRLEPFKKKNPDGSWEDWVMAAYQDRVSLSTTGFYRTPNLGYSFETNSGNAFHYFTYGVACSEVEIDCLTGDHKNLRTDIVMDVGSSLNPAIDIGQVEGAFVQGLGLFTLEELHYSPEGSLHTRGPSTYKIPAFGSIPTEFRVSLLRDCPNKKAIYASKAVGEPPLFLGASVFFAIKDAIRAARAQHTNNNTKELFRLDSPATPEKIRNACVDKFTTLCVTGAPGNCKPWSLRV

For the molecule `COc1cc2c(cc1OC)C(=O)C(CC1CCN(Cc3ccccc3)CC1)C2` (stereo not shown) [Donepezil, donepezil, reference compound], in assay [1], the “Note: type of inhibition approached (MAO-A)” value was “approaching noncompetitive” and the “Inhibition Type (MAO-A)” value was “mixed”. Also, in assay [2], the “Note: type of inhibition approached (MAO-B)” value is given as “approaching competitive” and the “Inhibition Type (MAO-B)” value is on record as “mixed”.
Take `CC(=O)Oc1ccc(CCOC(=O)C2CCN(Cc3ccccc3)CC2)cc1` [HT4a]: the IC50 in assay [3] was 57 ± 18.2 µM; in assay [4] it was 86 ± 24 µM; in assay [5] (setting [6]), 438 ± 6 µM. Besides, the Ki in assay [1] (setting [7]) was 15.6 ± 4.2 µM; in assay [2] (setting [8]), 20.7 ± 2.8 µM. Moreover, the “Note: type of inhibition approached (MAO-A)” value in assay [1] is “approaching competitive”. For the same molecule, the “Inhibition Type (MAO-A)” value in assay [1] is recorded as “mixed”. The “Inhibition Type (MAO-B)” value in assay [2] is listed as “competitive”.
On to `O=C(OCCc1ccc(O)c(O)c1)C1CCN(Cc2ccccc2)CC1` [HT1, 3,4-dihydroxyphenetyl 1-benzylpiperidine-4-carboxylate], for which the values for the IC50 in assay [3], in assay [4] and in assay [5] (setting [6]) were 54.1 ± 6.9 µM, 125 ± 28 µM and 454 ± 22 µM, respectively. Also, the Ki in assay [1] (setting [7]) was 39.7 ± 14.3 µM; in assay [2] (setting [8]) it was 163 ± 28 µM. The “Note: type of inhibition approached (MAO-A)” value in assay [1] is recorded as “approaching competitive”. For the same molecule, the “Inhibition Type (MAO-A)” value in assay [1] is “mixed”. Further, the “Inhibition Type (MAO-B)” value in assay [2] is reported as “competitive”.
In the case of `COc1cc(CCOC(=O)C2CCN(Cc3ccccc3)CC2)ccc1OC(C)=O` [HT3a], the IC50 in assay [3] was 44.3 ± 14.4 µM; in assay [4] it was 174 ± 80 µM; in assay [5] (setting [6]), 282 ± 37 µM. The “Inhibition Type (MAO-A)” value in assay [1] is “uncompetitive”. The Ki in assay [1] (uncompetitive, read-out: Ki, average value from Vmax or KM decrease (MAO-A)) was 80.5 ± 30.4 µM; in assay [2] (setting [8]), 190 ± 37 µM. The “Note: type of inhibition approached (MAO-B)” value in assay [2] is “approaching competitive”. Also, the “Inhibition Type (MAO-B)” value in assay [2] was “mixed”.
Turning to `COc1cc(CCOC(=O)C2CCN(Cc3ccccc3)CC2)ccc1O` [HT3, 4-hydroxy-3-methoxyphenethyl 1-benzylpiperidine-4-carboxylate], the figures for the half-maximal inhibitory concentration (IC50) in assay [3], in assay [4] and in assay [5] (setting [6]) were 23.4 ± 6.3 µM, 171 ± 44 µM and 361 ± 1 µM, respectively. The figures for the Ki in assay [1] (setting [7]) and in assay [2] (setting [8]) were 7.6 ± 3.7 µM and 115 ± 50 µM, respectively. Moreover, the “Note: type of inhibition approached (MAO-A)” value in assay [1] is listed as “approaching competitive”. In addition, in assay [1], the “Inhibition Type (MAO-A)” value is on record as “mixed”. In addition, the “Note: type of inhibition approached (MAO-B)” value in assay [2] is reported as “approaching competitive”. The “Inhibition Type (MAO-B)” value in assay [2] is “mixed”.
In assay [3], `CC(=O)Oc1ccc(CCOC(=O)C2CCN(Cc3ccccc3)CC2)cc1OC(C)=O` [HT1a] gave an IC50 of 50.8 ± 11 µM. For the same molecule, it took 85 ± 33 µM to reach half-maximal inhibition in assay [4] (IC50). Besides, in assay [5] (setting [6]), the “IC50 XO inhibition” value is reported as “no inhibition”. Moreover, in assay [5] (steady-state, concentration series), the “Inhibition of XO activity (in words)” value was “almost ineffective; also recorded: essentially no inhibition”. The Ki in assay [1] (setting [7]) is 36.5 ± 13.2 µM. In assay [1], the “Note: type of inhibition approached (MAO-A)” value is listed as “approaching competitive” and the “Inhibition Type (MAO-A)” value was “mixed”. In addition, in assay [2] (setting [8]), the Ki is 37.9 ± 13.1 µM. Further, in assay [2], the “Note: type of inhibition approached (MAO-B)” value was “approaching competitive” and the “Inhibition Type (MAO-B)” value is “mixed”.
On to `O=C(OCCc1ccc(O)cc1)C1CCN(Cc2ccccc2)CC1` [HT4, 4-hydroxyphenethyl 1-benzylpiperidine-4-carboxylate], for which the IC50 is 14.3 ± 2.2 µM in assay [3], 106 ± 22 µM in assay [4] and 605 ± 35 µM in assay [5] (setting [6]). For the same molecule, the Ki in assay [1] (setting [7]) is 6.1 ± 1.6 µM; in assay [2] (uncompetitive, read-out: Ki, average value from Vmax or KM decrease (MAO-B)), 128 ± 45 µM. The “Note: type of inhibition approached (MAO-A)” value in assay [1] is reported as “approaching competitive”. In addition, the “Inhibition Type (MAO-A)” value in assay [1] is listed as “mixed”. In addition, the “Inhibition Type (MAO-B)” value in assay [2] is “uncompetitive”.

What is called IC50 is the concentration that inhibits the measured activity by half.
